Several values for one entry are separate records, joined by “and”; a condition that tells them apart may be missing. Equal entries are not always repeated. Structures can show the parent of a compound that is named as a salt.
Each compound was assayed against T1, POsterior Segregation (Caenorhabditis elegans, UniProt G5EF15) (assay: inhibitors of POS-1/mex-3 RNA binding, dose response, biochemical, fluorescence polarization (AID 1964)).
T1 sequence (G5EF15 whole entry): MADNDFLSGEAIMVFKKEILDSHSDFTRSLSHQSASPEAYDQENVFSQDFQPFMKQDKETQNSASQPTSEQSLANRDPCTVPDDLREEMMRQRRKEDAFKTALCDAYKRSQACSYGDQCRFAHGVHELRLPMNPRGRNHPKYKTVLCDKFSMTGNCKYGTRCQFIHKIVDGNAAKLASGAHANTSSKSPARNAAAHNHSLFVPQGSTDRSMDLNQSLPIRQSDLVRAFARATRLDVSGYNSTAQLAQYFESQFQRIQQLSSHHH
In the case of `Cc1nnc(N2C(=O)C(=O)C(C(=O)c3ccco3)C2c2ccc(F)cc2)s1` (stereo not drawn) [2-(4-fluorophenyl)-3-(furan-2-carbonyl)-4-hydroxy-1-(5-methyl-1,3,4-thiadiazol-2-yl)-2H-pyrrol-5-one], the EC50 is reported as 34.2 µM.
In the case of `Cc1ccc(N/N=C2/C(=O)Nc3ccc(F)cc32)cc1` [5-fluoro-3-[2-(4-methylphenyl)hydrazono]indolin-2-one], the EC50 is reported as greater than 300 µM.
With `N#CC1C(=N)OC2=C(C(=O)CCC2)C1c1ccc(OC(=O)N2CCOCC2)cc1` (stereo not drawn) [4-(2-amino-3-cyano-5-oxo-5,6,7,8-tetrahydro-4H-chromen-4-yl)phenyl morpholine-4-carboxylate] the EC50 was greater than 300 µM.
In the case of `CCN(CC)c1ccc(NC=C2C(=O)NC(=O)N(Cc3ccccc3)C2=O)cc1` [(5E)-1-benzyl-5-[[4-(diethylamino)anilino]methylene]barbituric acid], the EC50 is reported as 30.1 µM and > 300 µM.
With `CCOC(=O)N1CCC2=C(C#N)C(=N)C(C#N)(C#N)[C@H](c3ccsc3)[C@H]2C1` [(8R,8aR)-6-amino-5,7,7-tricyano-8-(3-thienyl)-1,3,8,8a-tetrahydroisoquinoline-2-carboxylic acid ethyl ester] the EC50 was 78.8 µM.
Compound `CSc1nnc(N2C(=O)C(=O)C(C(=O)c3ccco3)C2c2ccccc2)s1` (stereo not drawn) [3-(furan-2-carbonyl)-4-hydroxy-1-(5-methylsulfanyl-1,3,4-thiadiazol-2-yl)-2-phenyl-2H-pyrrol-5-one] has an EC50 greater than 300 µM.
`Cc1n[nH]c(C)c1Sc1ccccc1/N=C/C1C=C(Cl)C=C([N+](=O)[O-])C1=O` (stereo not drawn) [(6E)-4-chloranyl-6-[[[2-[(3,5-dimethyl-1H-pyrazol-4-yl)sulfanyl]phenyl]amino]methylidene]-2-nitro-cyclohexa-2,4-dien-1-one] showed an EC50 greater than 300 µM.
`CCOc1ccc(N2C(=O)NC(=O)C(=Cc3c[nH]c4ccccc34)C2=O)cc1` [(5E)-1-(4-ethoxyphenyl)-5-(1H-indol-3-ylmethylidene)-1,3-diazinane-2,4,6-trione] showed an EC50 of 20.9 µM.
For `Clc1ccc(C2=Nc3ncnn3C(c3ccco3)C2)cc1` (stereo not drawn), the EC50 was 24.7 µM.
`O=C1Nc2ccccc2C1=NNc1ccccc1` [3-(phenylhydrazo)-2-indolone] gave an EC50 of 7.37 µM.
Compound `O=C1C=CC(/C=C/c2nc(O)c([N+](=O)[O-])c(=O)[nH]2)C=C1O` (stereo not drawn) [SMR000524347] has an EC50 of 250 µM.
In the case of `Cc1ccc(C(=O)C2C(=O)C(=O)N(Cc3ccco3)C2c2ccc(N(C)C)cc2)o1` (stereo not drawn) [2-[4-(dimethylamino)phenyl]-1-(2-furanylmethyl)-4-hydroxy-3-[(5-methyl-2-furanyl)-oxomethyl]-2H-pyrrol-5-one], the EC50 is reported as greater than 300 µM.
`C[C@@H]1O[C@@H](O[C@@H]2[C@@H](O)[C@H](OCCc3ccc(O)c(O)c3)O[C@H](CO)[C@H]2OC(=O)/C=C/c2ccc(O)c(O)c2)[C@H](O)[C@H](O)[C@H]1O` [((2R,3R,4R,5R,6R)-6-(3,4-dihydroxyphenethoxy)-5-hydroxy-2-(hydroxymethyl)-4-((2S,3R,4R,5R,6S)-3,4,5-trihydroxy-6-methyltetrahydro-2H-pyran-2-yloxy)tetrahydro-2H-pyran-3-yl) 3-(3,4-dihydroxyphenyl)acrylate] was tested, and the EC50 was 20.6 µM.
For `C=CCOc1cccc(C2C(C(=O)c3cc4ccccc4o3)C(=O)C(=O)N2c2cc(C)on2)c1` (stereo not drawn) [3-(1-benzofuran-2-carbonyl)-4-hydroxy-1-(5-methyl-1,2-oxazol-3-yl)-2-(3-prop-2-enoxyphenyl)-2H-pyrrol-5-one], the EC50 was greater than 300 µM.
`C=CCc1cccc(C=Nn2cnnc2)c1O` [(6E)-2-allyl-6-[(1,2,4-triazol-4-ylamino)methylene]cyclohexa-2,4-dien-1-one] was tested, and the EC50 was 226 µM.
For `Cc1nnc(N2C(=O)C(=O)C(C(=O)c3ccco3)C2c2ccc(C(C)(C)C)cc2)s1` (stereo not drawn) [2-(4-tert-butylphenyl)-3-(furan-2-carbonyl)-4-hydroxy-1-(5-methyl-1,3,4-thiadiazol-2-yl)-2H-pyrrol-5-one], the EC50 was 24.9 µM.
With `CC1=C(C#N)C(=O)N(C)C(=O)C1=CNNc1ccc(C)c(C)c1` [MLS000698328] the EC50 was greater than 300 µM.
`COc1ccc(N=CCC(=O)c2ccc(C)cc2)cc1OC` [SMR000269732] gave an EC50 greater than 300 µM.
In the case of `Cc1[nH]n(C(N)=S)c(=O)c1N=Nc1c(Cl)cc([N+](=O)[O-])cc1Cl` [SMR000514008], the EC50 is reported as greater than 300 µM.
Work on `O=C1NC(=O)N(CCc2ccccc2)C(=O)C1=CNNC(=O)c1ccncc1` [N'-[(E)-[2,4,6-trioxo-1-(2-phenylethyl)-1,3-diazinan-5-ylidene]methyl]-4-pyridinecarbohydrazide] yielded an EC50 greater than 300 µM.
`CCCCCCN1C(=O)C(=CNc2ccccc2N2CCOCC2)C(=O)NC1=S` [MLS000333666] gave an EC50 greater than 300 µM.
Work on `CN1CCC2=C(C#N)C(=N)C(C#N)(C#N)[C@H](c3cccc(Cl)c3)C2C1` (stereo partly drawn) [(8S)-6-amino-8-(3-chlorophenyl)-2-methyl-1,3,8,8a-tetrahydroisoquinoline-5,7,7-tricarbonitrile] yielded an EC50 of 12.5 µM.
`Cc1cc(=O)[nH]c(N=NCc2ccc(O)c(O)c2)n1` [MLS001194906] showed an EC50 of 99.3 µM.
In the case of `Cc1ccc(Cl)c2c1NC(=O)/C2=C1/NC(=S)NC1=O`, the EC50 is reported as 14.3 µM.
`CC1CCC2=C(C#N)C(=N)C(C#N)(C#N)C(c3cccs3)C2C1` (stereo not drawn) [2-amino-6-methyl-4-(2-thienyl)-4a,5,6,7-tetrahydro-4H-naphthalene-1,3,3-tricarbonitrile] was tested, and the EC50 was 21.7 µM.
`COc1ccc(C2C(C(C)=O)=C(C)N=c3sc(=Cc4cc(C)n(C)c4C)c(=O)n32)c(OC)c1` (stereo not drawn) was tested, and the EC50 was 10.9 µM.
Compound `COc1cc(OC)c(C2C3=C(CC(C)CC3=O)OC(=N)C2C#N)cc1OC` (stereo not drawn) [2-amino-4-asaryl-5-keto-7-methyl-4,6,7,8-tetrahydrochromene-3-carbonitrile] has an EC50 greater than 300 µM.
`COc1cc(C2NC(=S)N=C(C)C2C(=O)OC(C)C)ccc1OC(C)C` (stereo not drawn) [4-(3-methoxy-4-propan-2-yloxyphenyl)-6-methyl-2-sulfanylidene-3,4-dihydro-1H-pyrimidine-5-carboxylic acid propan-2-yl ester] showed an EC50 greater than 300 µM.
With `COc1ccccc1N1C(=O)NC(=O)C(=Cc2c[nH]c3ccccc23)C1=O` [SMR000495900] the EC50 was greater than 300 µM.
For `CCOc1cc(C=C2SC(Nc3ccc(CC)cc3)=NC2=O)ccc1OCC(=O)O` [2-[2-ethoxy-4-[(Z)-[2-(4-ethylanilino)-4-oxo-1,3-thiazol-5-ylidene]methyl]phenoxy]acetic acid], the EC50 was 25.6 µM.
Work on `C=CCOc1ccc(C2C(C(=O)c3cccs3)C(=O)C(=O)N2c2nnc(C)s2)cc1` (stereo not drawn) [1-(5-methyl-1,3,4-thiadiazol-2-yl)-4-oxidanyl-2-(4-prop-2-enoxyphenyl)-3-thiophen-2-ylcarbonyl-2H-pyrrol-5-one] yielded an EC50 of 10.8 µM.
In the case of `COc1ccccc1OCC(=O)NN=Cc1c(O)ccc2ccccc12`, the EC50 is reported as 228 µM.
`Cc1nnc(N2C(=O)C(=O)C(C(=O)c3ccco3)C2c2cccc3ccccc23)s1` (stereo not drawn) [3-(furan-2-carbonyl)-4-hydroxy-1-(5-methyl-1,3,4-thiadiazol-2-yl)-2-naphthalen-1-yl-2H-pyrrol-5-one] showed an EC50 greater than 300 µM.
`C[C@H]1c2cccc(O)c2C(=O)C2C(=O)[C@]3(O)C(=O)C(C(N)=O)C(=O)[C@@H](N(C)C)C3C(O)C21` (stereo partly drawn) [(2Z,4S,5S,6R,12aS)-2-[amino(hydroxy)methylidene]-4-(dimethylamino)-5,10,11,12a-tetrahydroxy-6-methyl-4a,5,5a,6-tetrahydro-4H-tetracene-1,3,12-trione;ethanol;hydrate;hydrochloride] showed an EC50 greater than 300 µM.
Work on `COc1ccc(N2C(=O)C(=Nc3ccccc3O)C(Cl)C2=O)cc1` (stereo not drawn) [3-Chloro-4-(2-hydroxy-phenylamino)-1-(4-methoxy-phenyl)-pyrrole-2,5-dione] yielded an EC50 greater than 300 µM.
`COc1cccc(C2C3=C(CCCC3=O)OC(=N)C2C#N)c1OC(=O)c1ccco1` (stereo not drawn) [2-(2-amino-3-cyano-5-oxo-5,6,7,8-tetrahydro-4H-chromen-4-yl)-6-methoxyphenyl 2-furoate] gave an EC50 greater than 300 µM.
`O=C(c1ccccc1)[C@@H]1c2c(c(O)n(-c3ccc(F)cc3)c2O)C2CCCN21` (stereo partly drawn) [MLS000769629] was tested, and the EC50 was 37.9 µM.
Work on `CC(N=Nc1ccc([N+](=O)[O-])cc1[N+](=O)[O-])c1cc2c(ccc3ccccc32)oc1=O` (stereo not drawn) [2-[1-[(2,4-dinitrophenyl)hydrazinylidene]ethyl]-3-benzo[f][1]benzopyranone] yielded an EC50 greater than 300 µM.
`Cc1cc(CN=Nc2ccc([N+](=O)[O-])cn2)c(C)n1-c1cccc(C(=O)O)c1` [3-[2,5-dimethyl-3-[[(5-nitro-2-pyridinyl)hydrazinylidene]methyl]-1-pyrrolyl]benzoic acid] showed an EC50 greater than 300 µM.
Compound `N#CC1C(=N)Oc2cc(O)c(Cl)cc2C1c1ccccc1F` (stereo not drawn) [2-Amino-6-chloro-4-(2-fluoro-phenyl)-7-hydroxy-4H-chromene-3-carbonitrile] has an EC50 greater than 300 µM.
Work on `O=C1NC(=O)N(Cc2ccccc2)C(=O)C1=CNc1ccc(CN2CCOCC2)cc1` [(5E)-1-benzyl-5-[[4-(morpholin-4-ylmethyl)anilino]methylidene]-1,3-diazinane-2,4,6-trione] yielded an EC50 greater than 300 µM.
`N#CC1C(=N)OC2=C(C(=O)CCC2)[C@]12C(=O)N(CC(N)=O)c1ccccc12` (stereo partly drawn) [2-[(4R)-2-amino-3-cyano-2',5-diketo-spiro[7,8-dihydro-6H-chromene-4,3'-indoline]-1'-yl]acetamide] was tested, and the EC50 was greater than 300 µM.
For `NC(=O)c1ccccc1N=CCC(=O)c1ccc(F)cc1` [2-[[(E)-3-(4-fluorophenyl)-3-keto-prop-1-enyl]amino]benzamide], the EC50 was greater than 300 µM.
For `Cc1cc(O)c(C(C)C)cc1Nc1csc(=O)[nH]1` [SMR000034713], the EC50 was 38.9 µM.
`CC(=N)C(C#N)C(=O)CSc1ncnc2ccccc12` (stereo not drawn) [(E)-3-amino-2-(2-quinazolin-4-ylsulfanylacetyl)but-2-enenitrile] showed an EC50 greater than 300 µM.
With `O=C(O)c1ccc(S(=O)(=O)N=C2C=C(Nc3ccccc3F)C(=O)c3ccccc32)cc1` the EC50 was 117 µM.
For `COc1ccc(C(=O)CC2=NCC3c4ccccc4CCN3C2=O)cc1` (stereo not drawn) [(3Z)-3-[2-(4-methoxyphenyl)-2-oxidanylidene-ethylidene]-2,6,7,11b-tetrahydro-1H-pyrazino[2,1-a]isoquinolin-4-one], the EC50 was greater than 300 µM.
In the case of `N#CC1C(=N)C2=C(N3CCCCC3)CCCC2C1(C#N)C#N` (stereo not drawn) [3-Amino-4-piperidin-1-yl-5,6,7,7a-tetrahydro-indene-1,1,2-tricarbonitrile], the EC50 is reported as 89.4 µM.

— BindingDB's records for doi:10.7270/Q28G8J4C (Broad Institute, 2009)
